This note sets out measurements from patent EP4810052A2, “HCRHR2 SELECTIVE POLYPEPTIDES” (Gubra A/S, priority 2023, dated 2026).

The experiment concerns the target T1, rCRHR1 (Rattus norvegicus, UniProt P35353).
T1 construct: DYK (FLAG); host or cells: CHO-K1, transiently transfected
T1 sequence (P35353 24-415): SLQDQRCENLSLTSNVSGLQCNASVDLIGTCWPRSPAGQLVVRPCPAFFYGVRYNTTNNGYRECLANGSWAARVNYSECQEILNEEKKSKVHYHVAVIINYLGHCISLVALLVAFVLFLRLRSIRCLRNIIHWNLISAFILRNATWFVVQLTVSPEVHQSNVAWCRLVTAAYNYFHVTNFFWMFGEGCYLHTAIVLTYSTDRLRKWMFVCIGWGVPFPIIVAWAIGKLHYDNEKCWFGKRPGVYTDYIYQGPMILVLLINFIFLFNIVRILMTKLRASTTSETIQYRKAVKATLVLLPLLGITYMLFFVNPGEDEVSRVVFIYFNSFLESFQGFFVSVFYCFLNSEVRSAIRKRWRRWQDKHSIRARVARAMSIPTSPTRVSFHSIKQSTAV
Kind of experiment: cAMP potency, transiently transfected CHO-K1 cells, rCRHR1. The class given is cell-based. The following applies: transiently transfected CHO-K1, average n=3; read-out: Transient cell system EC50 (nM) rCRH R1. On the procedure: Selected peptides were tested for potency on different species (mouse, rat, porcine) using transiently transfected CHO-K1 cells using the general procedure.

Starred links: 1 amine or outer side, 2 acyl side, 3 side chain; linkers in the order of their positions; H or OH if unused. Non-standard residues stand in square brackets, D forms with d. Residues, ends and D or L forms follow the SMILES beside them. Groups on a side chain read outwards from the residue. *: point of attachment. C20 diacid = O=C(O)CCCCCCCCCCCCCCCCCCC(=O)*; γGlu = O=C(O)[C@H](CCC(=O)[*:2])N[*:1]; Nle = CCCC[C@H](N)C(=O)O; AEEA = NCCOCCOCC(=O)O; Aib = CC(C)(N)C(=O)O Where only a bound is given, the exact number is not on record here.

Consider `CCCC[C@H](NC(=O)[C@@H](NC(=O)[C@H](CCC(=O)O)NC(=O)[C@H](C)NC(=O)[C@H](CC(N)=O)NC(=O)C(C)(C)NC(=O)[C@H](CCCCNC(=O)COCCOCCNC(=O)COCCOCCNC(=O)CC[C@H](NC(=O)CC[C@H](NC(=O)CCCCCCCCCCCCCCCCCCC(=O)O)C(=O)O)C(=O)O)NC(=O)[C@H](C)NC(=O)[C@H](CCC(N)=O)NC(=O)[C@H](CCC(=O)O)NC(=O)[C@H](CCCNC(=N)N)NC(=O)[C@H](C)NC(=O)[C@H](C)NC(=O)[C@H](CCCNC(=N)N)NC(=O)[C@H](C)NC(=O)[C@H](CCCNC(=N)N)NC(=O)[C@H](C)NC(=O)[C@H](CCC(N)=O)NC(=O)[C@H](CO)NC(=O)[C@H](CC(C)C)NC(=O)[C@H](CC(C)C)NC(=O)[C@@H](NC(=O)[C@H](CCC(N)=O)NC(=O)[C@H](CC(C)C)NC(=O)[C@H](CC(C)C)NC(=O)CNC(=O)[C@@H](NC(=O)[C@@H]1CCCN1C(=O)[C@@H](NC(=O)[C@H](CC(=O)O)NC(=O)[C@H](CC(C)C)NC(=O)[C@H](CO)NC(=O)[C@H](CC(C)C)NC(=O)[C@@H](NC(=O)[C@@H]1CCCN1)C(C)C)C(C)C)[C@@H](C)CC)[C@@H](C)CC)[C@@H](C)CC)C(=O)N[C@@H](C)C(=O)N[C@@H](CCC(=O)O)C(=O)N[C@H](C(N)=O)C(C)C` [SEQ ID NO: 238] (H-PVLSLDVPIGLLQILLSQARARAAREQAK([AEEA-AEEA-γGlu-γGlu-C20 diacid])[Aib]NAEI[Nle]AEV-NH2), for which the EC50 is > 1000 nM.

Broadly, the EC50 is the concentration giving half of the maximal effect.
